Test results taken from patent US7138361B2, “Herbicidal heterocycles” (E. I. du Pont de Nemours and Company, priority 2000, dated 2006).

What was measured:
Test in all cases: Test C preemergence
Assay type in all cases: in vivo
Sunflower [1] = conditions: Rate 125 g/ha, scale 0 to 100, 0 no effect, 100 complete control
[2] = system: Surinam grass (Brachiaria decumbens)
Excerpt: (§1) Seeds of plant species selected from bermudagrass (Cynodon dactylon), Surinam grass (Brachiaria decumbens), cocklebur (Xanthium strumarium), corn (Zea mays), crabgrass (Digitaria sanguinalis), woolly cupgrass (Eriochloa villosa), giant foxtail (Setaria faberii), goosegrass (Eleusine indica), johnsongrass (Sorghum halepense), kochia (Kochia scoparia), lambsquarters (Chenopodium album), morningglory (Ipomoea hederacea), yellow nutsedge (Cyperus esculentus), pigweed (Amaranthus retroflexus), common ragweed (Ambrosia elatior), soybean (Glycine max) and velvetleaf (Abutilon theophrasti) were planted and treated preemergence with test chemicals formulated in a non-phytotoxic solvent mixture which included a surfactant.
(§2) At the same time, plants selected from these crop and weed species and also winter barley (Hordeum vulgare), blackgrass (Alopecurus myosuroides), canary grass (Phalaris minor), chickweed (Stellaria media), downy brome (Bromus tectorum), green foxtail (Setaria viridis), Italian ryegrass (Lolium multiflorum), wheat (Triticum aestivum), wild oat (Avena fatua) and windgrass (Apera spica-venti) were treated with postemergence applications of some of the test chemicals formulated in the same manner. Plants ranged in height from 2 to 18 cm (1- to 4-leaf stage) for postemergence treatments. Plant species in the flooded paddy test consisted of rice (Oryza saliva), smallflower flatsedge (Cyperus difformis), duck salad (Heteranthera limosa) and barnyardgrass (Echinochloa crus-galli) grown to the 2-leaf stage for testing. Treated plants and controls were maintained in a greenhouse for 12 to 14 days, after which time all species were compared to controls and visually evaluated. Plant response ratings, summarized in Table C, are based on a scale of 0 to 100 where 0 is no effect and 100 is complete control. A dash (-) response means no test result.

Nightshade = system: Nightshade
Excerpt: as §1, §2

[3] = system: goosegrass (Eleusine indica)
Excerpt: as §1, §2

soybean (Glycine max) = system: soybean (Glycine max)
Excerpt: as §1, §2

[4] = system: pigweed (Amaranthus retroflexus)
Excerpt: as §1, §2

[5] = system: woolly cupgrass (Eriochloa villosa)
Excerpt: as §1, §2

[6] = system: johnsongrass (Sorghum halepense)
Excerpt: as §1, §2

[7] = system: lambsquarters (Chenopodium album)
Excerpt: as §1, §2

kochia (Kochia scoparia) = system: kochia (Kochia scoparia)
Excerpt: as §1, §2

[8] = system: crabgrass (Digitaria sanguinalis)
Excerpt: as §1, §2

[9] = system: yellow nutsedge (Cyperus esculentus)
Excerpt: as §1, §2

Sunflower [10] = system: Sunflower
Excerpt: as §1, §2

[11] = system: velvetleaf (Abutilon theophrasti)
Excerpt: as §1, §2

[12] = system: giant foxtail (Setaria faberii)
Excerpt: as §1, §2

corn (Zea mays) = system: corn (Zea mays)
Excerpt: as §1, §2

[13] = system: cocklebur (Xanthium strumarium)
Excerpt: as §1, §2

[14] = system: bermudagrass (Cynodon dactylon)
Excerpt: as §1, §2

[15] = system: morningglory (Ipomoea hederacea)
Excerpt: as §1, §2

[16] = Preemergence, Rate 500 g/ha, scale 0 to 100
[17] = Rate 62 g/ha, scale 0 to 100, 0 no effect, 100 complete control
[18] = preemergence, Rate 250 g/ha, visual evaluation after 12 to 14 days
[19] = preemergence, Rate 125 g/ha, scale 0 to 100, 0 no effect, 100 complete control
[20] = Rate 125 g/ha, scale 0 to 100, 0 no effect, 100 complete control
[21] = preemergence, Rate 31 g/ha, scale 0 to 100

CCC(C)c1ccn(C2SCN(c3cccc(C(F)(F)F)c3)C2=O)n1 (stereo not drawn) [Compound 20]
Plant response rating, Sunflower (Sunflower [1]): 40 | Plant response rating, Surinam grass [2, 16]: 40 | Plant response rating, Surinam grass [2, 17]: 0 | Plant response rating (0 to 100), Surinam grass [2, 18]: 0 | Plant response rating, Surinam grass [2, 19]: 0 | Plant response rating, Nightshade (Nightshade; [17]): 30 | Plant response rating, Nightshade (Nightshade; [20]): 70 | Plant response rating, Nightshade (Nightshade; Rate 500 g/ha, scale 0 to 100): 90 | Plant response rating, Goosegrass [3, 16]: 100 | Plant response rating, Goosegrass [3, 17]: 80 | Plant response rating (0 to 100), Goosegrass [3, 18]: 100 | Plant response rating, Goosegrass [3, 19]: 100 | Plant response rating, Soybean (soybean (Glycine max); [16]): 60 | Plant response rating, Soybean (soybean (Glycine max); [17]): 0 | Plant response rating (0 to 100), Soybean (soybean (Glycine max); [18]): 60 | Plant response rating, Soybean (soybean (Glycine max); [19]): 0 | Plant response rating, Pigweed [4, 16]: 60 | Plant response rating, Pigweed [4, 17]: 0 | Plant response rating (0 to 100), Pigweed [4, 18]: 100 | Plant response rating, Pigweed [4, 19]: 30 | Plant response rating, Cupgrass, Woolly [5, 16]: 100 | Plant response rating, Cupgrass, Woolly [5, 17]: 0 | Plant response rating (0 to 100), Cupgrass, Woolly [5, 18]: 90 | Plant response rating, Cupgrass, Woolly [5, 19]: 50 | Plant response rating, Johnsongrass [6, 16]: 100 | Plant response rating, Johnsongrass [6, 17]: 0 | Plant response rating (0 to 100), Johnsongrass [6, 18]: 50 | Plant response rating, Johnsongrass [6, 19]: 20 | Plant response rating, Lambsquarters [7, 16]: 100 | Plant response rating, Lambsquarters [7, 17]: 90 | Plant response rating (0 to 100), Lambsquarters [7, 18]: 100 | Plant response rating, Lambsquarters [7, 19]: 100 | Plant response rating, Kochia (kochia (Kochia scoparia); [16]): 100 | Plant response rating, Kochia (kochia (Kochia scoparia); [17]): 90 | Plant response rating (0 to 100), Kochia (kochia (Kochia scoparia); [18]): 100 | Plant response rating, Kochia (kochia (Kochia scoparia); [19]): 100 | Plant response rating, Crabgrass [8, 16]: 100 | Plant response rating, Crabgrass [8, 17]: 0 | Plant response rating (0 to 100), Crabgrass [8, 18]: 100 | Plant response rating, Crabgrass [8, 19]: 100 | Plant response rating, Nutsedge [9, 16]: 50 | Plant response rating, Nutsedge [9, 17]: 0 | Plant response rating (0 to 100), Nutsedge [9, 18]: 50 | Plant response rating, Nutsedge [9, 19]: 0 | Plant response rating, Sunflower (Sunflower [10]; [17]): 0 | Plant response rating, Sunflower (Sunflower [10]; Rate 500 g/ha, scale 0 to 100): 70 | Plant response rating, Velvetleaf [11, 16]: 20 | Plant response rating, Velvetleaf [11, 17]: 0 | Plant response rating (0 to 100), Velvetleaf [11, 18]: 20 | Plant response rating, Velvetleaf [11, 19]: 0 | Plant response rating, Foxtail, Giant [12, 16]: 0 | Plant response rating, Foxtail, Giant [12, 17]: 0 | Plant response rating (0 to 100), Foxtail, Giant [12, 18]: 100 | Plant response rating, Foxtail, Giant [12, 19]: 0 | Plant response rating, Corn (corn (Zea mays); [16]): 30 | Plant response rating, Corn (corn (Zea mays); [17]): 0 | Plant response rating (0 to 100), Corn (corn (Zea mays); [18]): 30 | Plant response rating, Corn (corn (Zea mays); [19]): 30 | Plant response rating, Cocklebur [13, 16]: 50 | Plant response rating, Cocklebur [13, 17]: 0 | Plant response rating (0 to 100), Cocklebur [13, 18]: 0 | Plant response rating, Cocklebur [13, 19]: 0 | Plant response rating, Bermudagrass [14, 16]: 100 | Plant response rating, Bermudagrass [14, 17]: 70 | Plant response rating (0 to 100 where 0 is no effect and 100 is complete control), Bermudagrass [14, 18]: 100 | Plant response rating, Bermudagrass [14, 19]: 100 | Plant response rating, Morningglory [15, 16]: 40 | Plant response rating, Morningglory [15, 17]: 0 | Plant response rating (0 to 100), Morningglory [15, 18]: 40 | Plant response rating, Morningglory [15, 19]: 30

CCC(CC)c1ccn(C2SCN(c3cccc(C(F)(F)F)c3)C2=O)n1 (stereo not drawn) [Compound 21]
Plant response rating, Sunflower (Sunflower [1]): 70 | Plant response rating, Surinam grass [2, 17]: 0 | Plant response rating, Surinam grass [2, 21]: 0 | Plant response rating, Surinam grass [2, 19]: 30 | Plant response rating, Nightshade (Nightshade; Rate 31 g/ha, scale 0 to 100): 80 | Plant response rating, Nightshade (Nightshade; [17]): 90 | Plant response rating, Nightshade (Nightshade; [20]): 100 | Plant response rating, Goosegrass [3, 17]: 80 | Plant response rating, Goosegrass [3, 21]: 80 | Plant response rating, Goosegrass [3, 19]: 100 | Plant response rating, Soybean (soybean (Glycine max); [17]): 40 | Plant response rating, Soybean (soybean (Glycine max); [21]): 30 | Plant response rating, Soybean (soybean (Glycine max); [19]): 80 | Plant response rating, Pigweed [4, 17]: 80 | Plant response rating, Pigweed [4, 21]: 30 | Plant response rating, Pigweed [4, 19]: 100 | Plant response rating, Cupgrass, Woolly [5, 17]: 80 | Plant response rating, Cupgrass, Woolly [5, 21]: 40 | Plant response rating, Cupgrass, Woolly [5, 19]: 80 | Plant response rating, Johnsongrass [6, 17]: 70 | Plant response rating, Johnsongrass [6, 21]: 30 | Plant response rating, Johnsongrass [6, 19]: 90 | Plant response rating, Lambsquarters [7, 17]: 100 | Plant response rating, Lambsquarters [7, 21]: 90 | Plant response rating, Lambsquarters [7, 19]: 100 | Plant response rating, Kochia (kochia (Kochia scoparia); [17]): 90 | Plant response rating, Kochia (kochia (Kochia scoparia); [21]): 90 | Plant response rating, Kochia (kochia (Kochia scoparia); [19]): 90 | Plant response rating, Crabgrass [8, 17]: 90 | Plant response rating, Crabgrass [8, 21]: 90 | Plant response rating, Crabgrass [8, 19]: 100 | Plant response rating, Nutsedge [9, 17]: 50 | Plant response rating, Nutsedge [9, 21]: 20 | Plant response rating, Nutsedge [9, 19]: 60 | Plant response rating, Sunflower (Sunflower [10]; [17]): 60 | Plant response rating, Velvetleaf [11, 17]: 0 | Plant response rating, Velvetleaf [11, 21]: 0 | Plant response rating, Velvetleaf [11, 19]: 0 | Plant response rating, Foxtail, Giant [12, 17]: 80 | Plant response rating, Foxtail, Giant [12, 21]: 0 | Plant response rating, Foxtail, Giant [12, 19]: 90 | Plant response rating, Corn (corn (Zea mays); [17]): 20 | Plant response rating, Corn (corn (Zea mays); [21]): 20 | Plant response rating, Corn (corn (Zea mays); [19]): 20 | Plant response rating, Cocklebur [13, 17]: 0 | Plant response rating, Cocklebur [13, 21]: 0 | Plant response rating, Cocklebur [13, 19]: 0 | Plant response rating, Bermudagrass [14, 17]: 100 | Plant response rating, Bermudagrass [14, 21]: 60 | Plant response rating, Bermudagrass [14, 19]: 100 | Plant response rating, Morningglory [15, 17]: 20 | Plant response rating, Morningglory [15, 21]: 0 | Plant response rating, Morningglory [15, 19]: 20
